In patent publication US20220184025A1, “NOVEL DEPSIDE DIMERIC COMPOUNDS FOR SKELETAL MUSCLE MODULATION, METHODS AND USES THEREOF” (SOCIETE DES PRODUITS NESTLE S.A., priority 2019, published 2022):

Test system: mouse hindlimb muscles
Experiment: In vivo muscle regeneration after cardiotoxin injury
Settings: mice, oral gavage 100 mg/kg body weight once a day from one week before cardiotoxin injury; muscles harvested 5 days after the injury; vs. water control
Protocol: Early phase of expansion and subsequent phase of myogenic differentiation of Muscle Stem Cells were evaluated by counting the number of Pax7+ cells (A) and myogenin+ cells (B), respectively. Data are expressed as number of cells per area of injured muscle. The size of each newly formed myofiber (C) has been measured based on the expression of the eMHC and laminin that allow to recognize and delineate these nascent myofibers. Results are shown as mean myofiber cross-sectional area (μm2).
In order to reproduce the physiological process of muscle regeneration that occurs in adult skeletal muscles in response to injury or disease, we performed an intramuscular injection of cardiotoxin into mouse hindlimb muscles. One week prior to the induction of the muscle injury, mice were given by oral gavage diffractaic acid (at 100 mg/kg body weight) vs. water control. Mice were treated once a day until the end of the experiment. To evaluate the efficiency of the muscle regeneration, muscles that have been previously injured were harvested 5 days after the injury and cryosections were prepared. Several myogenic markers were then measured. […]
Data are expressed as number of cells per area of injured muscle. The size of each newly formed myofiber (FIG. 10C) has been measured based on the expression of the eMHC and laminin that allow to recognize and delineate these nascent myofibers. […]

COc1cc(C)c(C(=O)Oc2cc(C)c(C(=O)O)c(O)c2C)c(OC)c1C [Diffractaic acid, Benzoic acid, 2,4-dimethoxy-3,6-dimethyl-, 4-carboxy-3-hydroxy-2,5-dimethylphenyl ester]
in vivo muscle regeneration process: able to promote the in vivo muscle regeneration process
